The values that follow come from US20040058999A1, “Compounds with anti-hiv activity” (priority 2002, published 2004).

Like-named read-outs stand apart in the source and are kept apart here.

For series [1], the system named is HIV virus. Format: cell-based. The conditions noted are these: for Neutralization Index: 200 μg/ml, 37°-1 h; for Viral titre after incubation at 37°-1 h with 200 μg/ml of drug: mean of 3 experiments.
In series [2] the test system is HIV virus. As to the kind of experiment: Viral growth curve in infected lymphoblasts cultures in the presence of the tested compounds. Format: cell-based. On the procedure:
(§1) Lymphoblasts cultures in stationary tubes (inoculum 200,000 cells/ml) at the 4th day from implant were used. A lactalbumin medium enriched with 20% decomplemented calf serum medium was used as culture medium (TC) and, as maintaining medium (TM), after infection of the cultures, a 199 supplemented with 1% bovine crystallized albumin and 2% calf serum was used. All media were added with penicillin (100 U.I/ml) and streptomycin (100 μg/ml). Viral dilutions were carried out with 199 only.
Xenalamine (p-α-ethoxy-p-phenyl-phenacylaminobenzoic acid), xenalic acid (p-(4-biphenyl-glyoxylidene)-amino-benzoic acid) at a 12.5 μg dose; xenaldial (4,4′-bis-diphenylglyoxal hydrate) at a 25 μg dose.
The following procedure was used to evaluate the viral growth curve in the presence of the tested compounds: cultures were infected with 1 ml of viral fluid containing a cytopathogenic dose to obtain an about 1:1 LD50/cell ratio. 1 Hour after the infection at +36° C. and repeated washings with Hanks balanced saline solution, the viral fluid was replaced with TM for the control groups and with TM+drug for the tested cultures.
At time intervals, aliquots from three cultures were taken, washed with Hanks solution, then added with 1 ml of TM and frozen at −30° C.
At the end of the experiment, the culture fluids were thawed and refrozen twice, pooling each aliquot, then titred simultaneously with the corresponding fluids separated before freezing.

The next series concerns Lymphoblasts cultures. As to the kind of experiment: Maximal dose tolerated by the cultures. Format: cell-based. The conditions noted are these: established in previous experiments. On the procedure:
as §1
The dose used for each drug is the maximal dose tolerated by the cultures, established in previous experiments.

Series [3] has as its system various Arborvirus, Poxvirus, Nitavirus and Myxovirus strains. As to conditions: in words; cited from earlier work.
The subject of another series is HTLV IIIB. Kind of series: HTLV IIIB-inhibitory activity on cultures of lymphocytes, % virus inhibition by PCR. Format: cell-based. The procedure:
HTLV IIIB-inhibitory activity of Xenaldial was tested on cultures of lymphocytes. The % virus inhibition was determined by means of PCR, according to the following procedure:
DNA was extracted from 5×10^4 lymphocytes using 400 μl lysate and incubating at 56° C./60′ and at 92° C./15′. Afterwards the mixture was cooled at room temperature and kept at 4° C.
The oligonucleotide SK19 (41 bases—corresponding to the internal sequence of the amplified pro-viral DNA) was synthesised, dissolved in water at a final concentration of 20 μm and 5′-labelled with polynucleotide kinase and ^32P-ATP.
Reagent preparation: Nucleotides: 125 μl of each nucleotide 10 mM were diluted to 1 ml with H2O (final concentration 1.25 mM); buffer 10×: KCl 2M—250 μl, TrisCl 1M pH8.3—100 μl, MgCl2 1M—20 μl, gelatine—10 mg, diluted to 1 ml with H2O;
Oligonucleotide pair: oligonucleotides SK38 and 39 were synthesised, purified and dissolved in a concentration of 200-300 μM.
Reaction: mixing buffer 10×, nucleotides (1.25 mM), oligonucleotide primer SK38 and SK39 15 μM, lysate, Taq polymerase 5 U/μl; denaturation 90° C./60′, annealing 55° C./30′, polymerisation 72° C./30′; repeat the cycle 30 times.

A further series concerns A-PR8 Influenza virus. The conditions noted are these: in words; cited from earlier work.
Another series relates to MHV-3 hepatitis virus. The conditions noted are these: in words; cited from earlier work.

`O=C(O)c1ccc(N=CC(=O)c2ccc(-c3ccccc3)cc2)cc1` [xenalic acid, p-(4-biphenyl-glyoxylidene)-amino-benzoic acid]: the “virucidal activity (on extracellular viral particles)” value in the series on HIV virus [1] was “marked virucidal activity”. Moreover, in the series on HIV virus [2] (same experimental conditions, compared with xenaldial), the “inhibitory effect on intracellular viral replication” value is given as “lower than that of xenaldial”. Further, the “maximal dose tolerated by the cultures” value in the series with Lymphoblasts cultures is 12.5 µg.
In the case of `O.O.O=CC(=O)c1ccc(-c2ccc(C(=O)C=O)cc2)cc1` [xenaldial, 4-4′-bis-biphenylglyoxal dihydrate], the antiviral activity result (in series [3]; in the series with A-PR8 Influenza virus; in the series on MHV-3 hepatitis virus) was “active” throughout. In addition, the “reduction of the pathogenic activity of the virus upon exposure (% of the logarithmic values compared with controls)” value with HIV virus [1] (high viral titre) was found to be 8.3%; in the series on HIV virus [1] (low viral titre), 42.8%. Also, the “Neutralization Index” value was 0.5 with HIV virus [1] (high viral titre (starting stock 6.5)) and 1.5 with HIV virus [1] (low viral titre (starting stock 4.5)). Further, the “Viral titre after incubation at 37°-1 h with 200 μg/ml of drug” value is 6.0 in the series on HIV virus [1] (high viral titre: starting stock titre 6.5, control after incubation 6.2) and 2.0 with HIV virus [1] (low viral titre: starting stock titre 4.5, control after incubation 3.5). The “virucidal activity (on extracellular viral particles)” value in the series with HIV virus [1] (in words) is reported as “marked virucidal activity”. Further, the Inhibition % was found to be 44% in the series on HTLV IIIB (0.001 μM); 30% in the series on HTLV IIIB (0.01 μM); 12% in the series with HTLV IIIB (0.1 μM); 16% in the series with HTLV IIIB (1 μM); 42% in the series with HTLV IIIB (5 μM); 26% with HTLV IIIB (20 μM). For the same compound, the Inhibition % with HTLV IIIB (60 μM) was 59%; in the series with HTLV IIIB (100 μM) it was 77%. The “delay in the appearance of the virus in fluids compared with controls” value in the series on HIV virus [2] (drug added 1 h after infection, xenalamine 12.5 μg/ml, xenaldial 25 μg/ml) came out at 24 h. For the same compound, in the series on HIV virus [2] (xenaldial 25 μg/ml added 1 h and again 48 hours after the infection), the “reduction of the intra- and extracellular virus amount compared with controls, time up to which observed” value is reported as “up to 120 hours”. The “maximal dose tolerated by the cultures” value with Lymphoblasts cultures amounted to 25 µg.
